From patent publication US20120116069A1, “GLUCOSE METABOLISM-IMPROVING AGENT AND GLUCOSE METABOLISM-IMPROVING COMPOSITION” (LION CORPORATION, priority 2009, published 2012)
Marks after values point to notes of the source that are not given here.

What was measured:
[1] = tested on: model mice of hyperglycemia (KKAy mouse); experiment: Blood sugar level of KKAy mice after one-week main breeding on high fat diet containing PT or PD; format: in vivo; conditions: 0.1% by mass in high fat diet (control group 335.4 mg/dL)
Method: Twenty-four model mice of hyperglycemia (KKAy mouse (product of CLEA Japan, Inc.), male, four weeks old) were preliminarily bred for one week in individual cages under the following conditions: temperature: room temperature (22° C.±1° C.), humidity: 50%±5%, and light-dark cycle: 12 hours. Eight grams per day of CE-2 (product of CLEA Japan, Inc.) was given to each mouse as feed during the preliminary breeding, while water was given ad libitum. After completion of the preliminary breeding, the mice were measured for body weight and blood sugar level. Then, they were divided into three groups, each containing eight mice, so that the body weights and blood sugar levels were averaged in the three groups, followed by main breeding in a manner described below. […] GB SENSOR (product of Sanko Junyaku Co., Ltd.) using the whole blood sampled from the tale vein of the mouse. The mice of one group were subjected to main breeding for one week under the conditions that eight grams per day of a commercially available high fat diet (trade name: Quick Fat, product of CLEA Japan, Inc.) was given to each mouse while water was given ad libitum. […] Hereinafter, this group may be referred to as “PD-administered group.” After the one-week main breeding, the mice were measured for blood sugar level and body weight, and then were subjected to measurement of the amount of ^13CO2 excreted.

[2] = tested on: cells derived from rat skeletal muscle (L6 cells); experiment: Intake of RI-labeled 2-deoxyglucose into differentiated L6 cells; format: cell-based; conditions: n=4
Method: Cells derived from rat skeletal muscle (L6 cells, product of Dainippon Pharmaceutical Co., Ltd.) were suspended in 15 mL of DMEM (Dulbecco's modified Eagle medium, product of SIGMA Co.) containing 10% by mass FBS (fetal bovine serum, product of GIBCO Co.) and 1% by mass AB (anti-biotic solution, product of SIGMA Co.). The resultant suspension was dispensed into 75-cm^2 culture flasks and then statically cultured at 37° C. under 5% CO2. After having reached subconfluency (80%), each culture was placed in a 24-well plate (product of SUMITOMO BAKELITE CO., LTD.) at 50,000 cells/well. After having reached confluency, the cells were cultured for three days. Then, the medium was exchanged with MEM (minimal essential medium, product of NACALAI TESQUE, INC.) containing 2% by mass FBS and 1% by mass AB to thereby induce differentiation of the L6 cells. Eight days after the induction of differentiation, a solution of panaxatriol (PT) (product of LKT Laboratories, Inc.) in ethanol was added to the resultant medium so that the concentration of panaxatriol (PT) was 1 ppm or 10 ppm. The PT-free well was used as a control for each of these wells. Then, 30 hours after, the medium of each well was exchanged with MEM containing 2% by mass BSA (bovine serum albumin, product of SIGMA Co.) and panaxatriol (PT) at a concentration of 1 ppm or 10 ppm, to thereby terminate sensitization. Furthermore, 18 hours after, the MEM containing 2% by mass BSA was removed, and a KRH buffer (50 mM HEPES (product of SIGMA Co.), pH 7.4, 137 mM sodium chloride (product of Wako Pure Chemical Industries, Ltd.), 4.8 mM potassium chloride (product of Wako Pure Chemical Industries, Ltd.), 1.85 mM calcium chloride (product of Wako Pure Chemical Industries, Ltd.) and 1.3 mM magnesium sulfate (product of Wako Pure Chemical Industries, Ltd.)) was added to the wells at 30 μL/well. Thereafter, 6 μL of RI-labeled 2-deoxyglucose (2-DG, product of American Radiolabeled Chemicals Co.) (final concentration: 6.5 mM (0.5·Ci)) was added to the wells to perform reaction. Five minutes after the initiation of reaction, the cells were washed four times with an ice-cooled KRH buffer to remove 2-DG that had not been taken into the L6 cells. After removal of the KRH buffer, the cells were lysed with 250 μL of 0.05N sodium hydroxide (product of Wako Pure Chemical Industries, Ltd.) and recovered in a vial. In addition, the wells were washed twice with 200 μL of the KRH buffer and recovered in the vial similarly. Then, 3 mL of liquid scintillation cocktail PICOFLOUR (product of PerkinElmer Co., Ltd.) was added to the vial containing the cells recovered, followed by measuring for radioactivity with a liquid scintillation counter (LSC-5100, product of Aloka Co.). […]

With `CC1(C)CCC[C@](C)([C@H]2CC[C@]3(C)[C@@H]2[C@H](O)C[C@@H]2[C@@]4(C)CC[C@H](O)C(C)(C)[C@@H]4CC[C@]23C)O1` [PD, panaxadiol] the blood sugar level [1] was 231.6 mg/dL, the “Relative activity (radioactivity of 2-DG taken in, compound-free well = 100)” value ([2]; 1 ppm) was 130* and the “Relative activity (radioactivity of 2-DG taken in, compound-free well = 100)” value ([2]; 10 ppm) was 140**.

For `CC1(C)CCC[C@](C)([C@H]2CC[C@]3(C)[C@@H]2[C@H](O)C[C@@H]2[C@@]4(C)CC[C@H](O)C(C)(C)[C@@H]4[C@@H](O)C[C@]23C)O1` [PT, panaxatriol], the blood sugar level [1] was 199.3 mg/dL, the “Relative activity (radioactivity of 2-DG taken in, compound-free well = 100)” value ([2]; 1 ppm) was 132* and the “Relative activity (radioactivity of 2-DG taken in, compound-free well = 100)” value ([2]; 10 ppm) was 145**.
